Reference: patent publication US6617358B1, “Anticonvulsant and central nervous system-depressing bis(fluorophenyl)alkylamides and their uses” (NPS Pharmaceuticals, Inc., priority 1997, dated 2003)

System: flexor reflex in normal anesthetized rats
Assay: Flexor reflex in normal anesthetized rats (FIG. 3)
Format: in vivo, rat
Conditions: in comparison to baclofen, FIG. 3 legend only, values not given
Source text: Baclofen, diazepam (Valium), and tizanidine are effective on different parameters of spasticity (EMG recordings, H-reflex, the H/M ratio, mono- and polysynaptic reflexes, clonus, hyperreflexia) in these models. The flexor reflex is a polysynaptic response elicited by stimulation of the bottom of the foot and models the withdrawal reflex.

With `NC(=O)CC(c1cccc(F)c1)c1cccc(F)c1` [Compound 1, 3,3-bis(3-fluorophenyl)propanamide] the “reduction in the flexor reflex” value was “reduction in the flexor reflex”.
